Laboratory results reported in patent US20250188457A1, “COMPOSITIONS AND METHODS FOR THE TREATMENT OF GLIOBLASTOMA BY INHIBITION OF THE TFPI2-CD51-STAT6 SIGNALING AXIS” (Northwestern University, priority 2023, published 2025).

Legend:
HMC3 microglia = assay: Incucyte live-cell and scratch wound healing migration of microglia; type: cell-based, human; conditions: TFPI2 recombinant protein 20 ng/ml; AS1517499 25 nM
Description: The scratch-wound assay was performed (Ref. 74; incorporated by reference in its entirety). For tracking single cell movement, microglia were cultured in 96-well plates (Corning, #3599) with different treatments. Incucyte Live Cell Analysis System was used to record cell movement over time. The time-lapse images were reconstructed and analyzed using TrackMate (Refs. 75-76; incorporated by reference in its entirety). The speed of each individual cell was calculated by processing images with LoG detector and Linear Assignment Problem (LAP) tracker.

005 GSC and CT2A tumors = assay: Survival of C57BL/6 mice implanted with 005 GSCs or CT2A cells; type: in vivo, mouse; conditions: anti-PD1 10 mg/kg i.p. on days 11, 14 and 17, MK-0429 30 mg/kg or AS1517499 10 mg/kg i.p. every other day
Description: Female C57BL/6 (#0000664), nude mice (#007850), and B6.12952(C)-Stat6tm1Gru/J mice (STAT6-KO; #005977) at 6 weeks of age were purchased from the Jackson Laboratory. Mice were grouped by 5 animals and maintained in a pathogen-free IVC System (San Diego, CA) for a week before the experiment. All animal experiments were performed with the approval of the Institutional Animal Care and Use Committee (IACUC) at Northwestern University. The intracranial xenograft tumor models were established (Refs. 11, 61; incorporated by reference in their entireties). Ketamine (100 mg/kg) and xylazine (20 mg/kg) were used for anesthetizing mice through intraperitoneal injection. Then a dental drill was used to open a small hole in the skull 1.2 mm anterior and 3.0 mm lateral to the bregma. A total volume of […] cells in FBS-free DMEM was injected into the right caudate nucleus 3 mm below the surface of the brain using a […] Hamilton syringe with an unbeveled 30-gauge needle. Total three doses of 20 mg/kg meloxicam were administrated before and after surgery through subcutaneous injection. After cancer cell implantation, mice were monitored for recording survival. Mice with neurological deficits or moribund appearance were sacrificed. Following the transcardiac perfusion with PBS and 4% paraformaldehyde (PFA), brains were removed and fixed in 4% PFA, and were processed for paraffin-embedded blocks or cryosectioning.

[1] = test system: GSC262, GSC23 and GSC20 cells; assay: Immunoblot for CD133 and SOX2 in GSCs; type: cell-based, human; conditions: TFPI2 recombinant protein at indicated concentrations for 24 hrs
Description: The protein expression in cells was determined by western blotting analysis (Ref. 61; incorporated by reference in its entirety). Cells were homogenized in RIPA lysis buffer containing phosphatase/protease cocktail inhibitors (Cell Signaling Technology, #5870). The protein concentration was determined by BCA Protein Assay Kit (Thermo Fisher Scientific, #P123225). Protein solution was mixed with the Leammli sample buffer and heated at 95° C. before loading to SurePAGE gels (GenScript, #M00653). The gels were run at a constant voltage of 80 V and then transferred to 0.2 μm nitrocellulose membrane (Bio-Rad, #1620112) using the Trans-Blot Turbo system (Bio-Rad) with a preprogrammed standard protocol for 30 min. Nitrocellulose membrane was incubated with 5% dry milk to block any unspecific staining. […]

CD51 = assay: Co-immunoprecipitation of TFPI2 and CD51 in microglia; type: binding, human and mouse; conditions: SIM-A9 and HMC3 microglia treated with 20 ng/ml TFPI2 recombinant protein for 1 hr; anti-CD51 or anti-TFPI2 antibody
Description: Co-IP was performed using Invitrogen™ Dynabeads™ Protein G Immunoprecipitation Kit (Thermo Fisher Scientific, #10007D). Briefly, human or mouse microglia were treated with 20 ng/ml TFPI2 recombinant protein for 1 hr. RIPA lysis buffer was then used to extract protein after washing with PBS. Magnetic beads (1.5 mg) were separated from the solution using a magnetic stand. […] TFPI2 antibody (Abcam, #ab186747), CD51 antibody (Cell Signaling Technology, #4711S), or rabbit IgG (isotype control, Cell Signaling Technology, #2729) was prepared in […] of antibody binding and washing Buffer. Antibody or IgG was incubated with magnetic beads for 10 min at room temperature with rotation. After removing the supernatant, antibody/IgG-conjugated magnetic beads were incubated with cell lysis buffer for 2 hrs at room temperature with rotation to immunoprecipitate TFPI2- or CD51-interacting antigens. The magnetic bead-antibody-antigen complex was washed three times using […] washing buffer and then eluted with the elution buffer. The complex was loaded into 4-12% SurePAGE gels to evaluate target protein expression after Co-IP.

| Molecule | TFPI2-induced HMC3 microglia migration, incucyte live-cell and scratch assays (HMC3 microglia) | survival of mice bearing 005 GSC and CT2A tumors, combination with anti-PD1 therapy (005 GSC and CT2A tumors) | expression of stemness-associated factors CD133 and SOX2 [1] | interaction between CD51 and TFPI2 (CD51) |
| --- | --- | --- | --- | --- |
| NC(=O)c1cnc(NCCc2ccc(O)c(Cl)c2)nc1NCc1ccccc1 [AS1517499] | impairment | synergized | – | – |
| TFPI2 recombinant protein (tissue factor pathway inhibitor 2; BioVision, #7481-10) (ligand, UniProt P48307 23-235, looked up, Bought recombinant protein added to microglia at 20 ng/ml; also called recombinant TFPI2; secreted TFPI2) DAAQEPTGNNAEICLLPLDYGPCRALLLRYYYDRYTQSCRQFLYGGCEGNANNFYTWEACDDACWRIEKVPKVCRLQVSVDDQCEGSTEKYFFNLSSMTCEKFFSGGCHRNRIENRFPDEATCMGFCAPKKIPSFCYSPKDEGLCSANVTRYYFNPRYRTCDAFTYTGCGGNDNNFVSREDCKRACAKALKKKKKMPKLRFASRIRKIRKKQF | – | – | increased | confirmed |
